Molecular target: D1 receptor (Homo sapiens, UniProt P21728)
Assay: Calculated fraction of D1 receptors occupied from Ki and free drug concentration
Details: at a therapeutic olanzapine level
Text: In particular, affinities of many drugs for receptors are well known. For example, Goodman and Gilmans “The Pharmacological Basis of Therapeutics,” Tenth Edition. […] [formula]

Chain of D1 receptor (P21728 whole entry): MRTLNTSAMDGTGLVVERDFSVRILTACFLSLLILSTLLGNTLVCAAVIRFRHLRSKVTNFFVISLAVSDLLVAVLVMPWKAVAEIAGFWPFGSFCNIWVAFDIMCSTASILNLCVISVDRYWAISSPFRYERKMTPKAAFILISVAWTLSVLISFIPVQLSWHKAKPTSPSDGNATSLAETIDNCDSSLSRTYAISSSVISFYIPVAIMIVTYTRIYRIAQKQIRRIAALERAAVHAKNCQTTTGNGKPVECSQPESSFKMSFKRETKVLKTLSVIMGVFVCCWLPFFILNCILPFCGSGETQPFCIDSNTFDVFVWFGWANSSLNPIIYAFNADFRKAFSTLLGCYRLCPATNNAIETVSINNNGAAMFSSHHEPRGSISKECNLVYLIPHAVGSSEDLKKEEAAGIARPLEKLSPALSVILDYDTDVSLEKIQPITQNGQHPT

For `Cc1cc2c(s1)Nc1ccccc1N=C2N1CCN(C)CC1` [olanzapine], the “D1 receptors blocked (antagonized)” value was “approximately 47%”.

— US20060089824A1, “Methods and systems for drug screening and computational modeling” (priority 2002, published 2006)
